# Results: US12251382B2, “Substituted amino-pyrimidine compound for use in a method for treatment and prevention of multiple sclerosis” (Merck Patent GmbH, priority 2018, dated 2025)
# Entries after “also recorded” stand apart in the source; their conditions may differ. Read-outs that look alike come from different tables or passages of the source.
# Settings: for Overall safety and tolerability: single doses 25-500 mg, multiple doses 25-200 mg for 14 days
# Protocol: A randomized, double-blind, placebo-controlled trial conducted in healthy volunteers. […] Written informed consent was obtained from all participants.
# Following completion of each dose cohort in both parts of the study, a safety monitoring committee (SMC) decided whether protocol-defined dose escalation to the next level was appropriate to a maximum of 500 mg in Part 1, or to the highest safe and tolerated dose or highest dose from Part 1 in Part 2, based on all safety data and other available data (including PK and PD data). […] Other safety data (e.g., hematology parameters) were also taken into consideration for dose escalation decisions as a matter of course.
# TEAEs and SAEs were recorded from time of informed consent until study completion. […] Assessment of severity considered the Toxicity Grading Scale for Healthy Adult and Adolescent Volunteers Enrolled in Preventative Vaccine Clinical Trials. Data were summarized using descriptive statistics.
compound,measurement,setting,value
"C=CC(=O)N1CCC(CNc2ncnc(N)c2-c2ccc(Oc3ccccc3)cc2)CC1 [Evobrutinib, 1-(4-(((6-amino-5-(4-phenoxyphenyl)pyrimidin-4-yl)amino)methyl)piperidin-1-yl)prop-2-en-1-one]","Dry eye, subjects","Part 1, single dose 100 mg",0 (0.0) n (%)
same,"Dry mouth, subjects","Part 1, single dose 100 mg",0 (0.0) n (%)
same,"Dyspepsia, subjects","Part 1, single dose 100 mg",0 (0.0) n (%)
same,"Excoriation, subjects","Part 1, single dose 100 mg",0 (0.0) n (%)
same,"Headache, subjects","Part 1, single dose 100 mg",0 (0.0) n (%)
same,"Lipase increased, subjects","Part 1, single dose 100 mg",0 (0.0) n (%)
same,"Multiple injuries, subjects","Part 1, single dose 100 mg",0 (0.0) n (%)
same,"Nasal congestion, number of TEAEs","Part 1, single dose 100 mg",[1]
same,"Nasal congestion, subjects","Part 1, single dose 100 mg",1 (16.7) n (%)
same,"Noncardiac chest pain, subjects","Part 1, single dose 100 mg",0 (0.0) n (%)
same,"Odynophagia, subjects","Part 1, single dose 100 mg",0 (0.0) n (%)
same,"Overall total TEAEs, subjects","Part 1, single dose 100 mg",1 (16.7) n (%)
same,"Overall total, number of TEAEs","Part 1, single dose 100 mg",[1]
same,"Upper respiratory tract infection, subjects","Part 1, single dose 100 mg",0 (0.0) n (%)
same,"Abdominal pain, subjects","Part 1, single dose 200 mg",0 (0.0) n (%)
same,"Amylase increased, number of TEAEs","Part 1, single dose 200 mg",[1]
same,"Amylase increased, subjects","Part 1, single dose 200 mg",1 (16.7) n (%)
same,"Application site pruritus (due to ECG stickers), subjects","Part 1, single dose 200 mg",0 (0.0) n (%)
same,"Back pain, subjects","Part 1, single dose 200 mg",0 (0.0) n (%)
same,"Contact dermatitis, subjects","Part 1, single dose 200 mg",0 (0.0) n (%)
same,"Dizziness, number of TEAEs","Part 1, single dose 200 mg",[1]
same,"Dizziness, subjects","Part 1, single dose 200 mg",1 (16.7) n (%)
same,"Dry eye, subjects","Part 1, single dose 200 mg",0 (0.0) n (%)
same,"Dry mouth, subjects","Part 1, single dose 200 mg",0 (0.0) n (%)
same,"Dyspepsia, subjects","Part 1, single dose 200 mg",0 (0.0) n (%)
same,"Excoriation, number of TEAEs","Part 1, single dose 200 mg",[1]
same,"Excoriation, subjects","Part 1, single dose 200 mg",1 (16.7) n (%)
same,"Headache, subjects","Part 1, single dose 200 mg",0 (0.0) n (%)
same,"Lipase increased, number of TEAEs","Part 1, single dose 200 mg",[1]
same,"Lipase increased, subjects","Part 1, single dose 200 mg",1 (16.7) n (%)
same,"Multiple injuries, subjects","Part 1, single dose 200 mg",0 (0.0) n (%)
same,"Nasal congestion, subjects","Part 1, single dose 200 mg",0 (0.0) n (%)
same,"Noncardiac chest pain, subjects","Part 1, single dose 200 mg",0 (0.0) n (%)
same,"Odynophagia, subjects","Part 1, single dose 200 mg",0 (0.0) n (%)
same,"Overall total TEAEs, subjects","Part 1, single dose 200 mg",2 (33.3) n (%)
same,"Overall total, number of TEAEs","Part 1, single dose 200 mg",[4]
same,"Upper respiratory tract infection, subjects","Part 1, single dose 200 mg",0 (0.0) n (%)
same,"Abdominal pain, subjects","Part 1, single dose 350 mg",0 (0.0) n (%)
same,"Amylase increased, subjects","Part 1, single dose 350 mg",0 (0.0) n (%)
same,"Application site pruritus (due to ECG stickers), subjects","Part 1, single dose 350 mg",0 (0.0) n (%)
same,"Back pain, subjects","Part 1, single dose 350 mg",0 (0.0) n (%)
same,"Contact dermatitis, subjects","Part 1, single dose 350 mg",0 (0.0) n (%)
same,"Dizziness, subjects","Part 1, single dose 350 mg",0 (0.0) n (%)
same,"Dry eye, subjects","Part 1, single dose 350 mg",0 (0.0) n (%)
same,"Dry mouth, subjects","Part 1, single dose 350 mg",0 (0.0) n (%)
same,"Dyspepsia, subjects","Part 1, single dose 350 mg",0 (0.0) n (%)
same,"Excoriation, subjects","Part 1, single dose 350 mg",0 (0.0) n (%)
same,"Headache, subjects","Part 1, single dose 350 mg",0 (0.0) n (%)
same,"Lipase increased, subjects","Part 1, single dose 350 mg",0 (0.0) n (%)
same,"Multiple injuries, number of TEAEs","Part 1, single dose 350 mg",[1]
same,"Multiple injuries, subjects","Part 1, single dose 350 mg",1 (16.7) n (%)
same,"Nasal congestion, subjects","Part 1, single dose 350 mg",0 (0.0) n (%)
same,"Noncardiac chest pain, subjects","Part 1, single dose 350 mg",0 (0.0) n (%)
same,"Odynophagia, subjects","Part 1, single dose 350 mg",0 (0.0) n (%)
same,"Overall total TEAEs, subjects","Part 1, single dose 350 mg",1 (16.7) n (%)
same,"Overall total, number of TEAEs","Part 1, single dose 350 mg",[1]
same,"Upper respiratory tract infection, subjects","Part 1, single dose 350 mg",0 (0.0) n (%)
same,"Abdominal pain, subjects","Part 1, single dose 500 mg",0 (0.0) n (%)
same,"Amylase increased, subjects","Part 1, single dose 500 mg",0 (0.0) n (%)
same,"Application site pruritus (due to ECG stickers), subjects","Part 1, single dose 500 mg",0 (0.0) n (%)
same,"Back pain, subjects","Part 1, single dose 500 mg",0 (0.0) n (%)
same,"Contact dermatitis, subjects","Part 1, single dose 500 mg",0 (0.0) n (%)
same,"Dizziness, subjects","Part 1, single dose 500 mg",0 (0.0) n (%)
same,"Dry eye, number of TEAEs","Part 1, single dose 500 mg",[1]
same,"Dry eye, subjects","Part 1, single dose 500 mg",1 (16.7) n (%)
same,"Dry mouth, subjects","Part 1, single dose 500 mg",0 (0.0) n (%)
same,"Dyspepsia, subjects","Part 1, single dose 500 mg",0 (0.0) n (%)
same,"Excoriation, subjects","Part 1, single dose 500 mg",0 (0.0) n (%)
same,"Headache, number of TEAEs","Part 1, single dose 500 mg",[2]
same,"Headache, subjects","Part 1, single dose 500 mg",1 (16.7) n (%)
same,"Lipase increased, subjects","Part 1, single dose 500 mg",0 (0.0) n (%)
same,"Multiple injuries, subjects","Part 1, single dose 500 mg",0 (0.0) n (%)
same,"Nasal congestion, subjects","Part 1, single dose 500 mg",0 (0.0) n (%)
same,"Noncardiac chest pain, subjects","Part 1, single dose 500 mg",0 (0.0) n (%)
same,"Odynophagia, number of TEAEs","Part 1, single dose 500 mg",[1]
same,"Odynophagia, subjects","Part 1, single dose 500 mg",1 (16.7) n (%)
same,"Overall total TEAEs, subjects","Part 1, single dose 500 mg",2 (33.3) n (%)
same,"Overall total, number of TEAEs","Part 1, single dose 500 mg",[3]
same,"Upper respiratory tract infection, subjects","Part 1, single dose 500 mg",0 (0.0) n (%)
same,Subjects with TEAEs,"Part 1, single dosing, all evobrutinib doses",25%
same,"TEAEs leading to discontinuation; trends in vital signs, ECGs, laboratory values, IgG subclasses",either part of the study,"no TEAEs leading to discontinuation and no clinically significant trends in vital signs, ECGs, laboratory values or immunoglobulin G (IgG) subclasses"
same,"SAE of multi-trauma due to an automobile accident, relation to study drug","one subject, 350 mg single ascending dose cohort, 7 days after administration",unrelated to the study drug
same,Deaths or serious adverse events (SAEs) related to treatment,single and multiple dosing (Parts 1 and 2),no deaths or serious adverse events (SAEs) related to treatment
same,Overall safety and tolerability,,well tolerated
same,Overall safety and tolerability,listed as evobrutinib,safe and well tolerated and no non-tolerated dose could be defined; also recorded: safe and well tolerated
